Reference: US20080299076A1, “Compunds and compositions that cause non-apoptotic cell death and uses thereof” (priority 2006, published 2008)
“Also recorded” adds a separate entry of the source. Where two headings read alike, the source gives them in different places.

How the values were obtained:
[1] = system: BJ-TERT/LT/ST/RAS^V12 cells; test: Suppression of erastin-induced cell death (suppressor screen and follow-up); type: cell-based, human; details: co-treatment with erastin
CCRF-CEM parental cells = test: Cell death in taxol/vinblastine resistance panel; type: cell-based; details: Homo sapiens
Description: (§1) In certain embodiments, the sensitivity to erastin, can be tested in cell lines that are resistant to taxol and vinblastine. The sensitivity of CCRF-CEM parental, and taxol and vinblastine resistant derivative cells to erastin was tested. […] Erastin analogues can be tested to ensure their effectiveness in inducing cell death in tumor cell line which are resistant to taxol or vinblastin, or other ant-tumor agents.

[2] = system: taxol resistant CCRF-CEM derivative cells; test: Cell death in taxol/vinblastine resistance panel; type: cell-based; details: Homo sapiens
Description: as §1

[3] = system: vinblastine resistant CCRF-CEM derivative cells; test: Cell death in taxol/vinblastine resistance panel; type: cell-based; details: Homo sapiens
Description: as §1

[4] = system: BJ-TERT/LT/ST/RAS^V12 cells; test: Alamar Blue viability assay; type: cell-based, human; details: for IC50: BJ-TERT/LT/ST/RAS^V12 (BJELR) cells, read-out: IC50 (lethality); for Selective lethality / activity of erastin analog: BJ-TERT/LT/ST/RAS^V12 cells versus BJ-TERT cells
Description: (a) Calu-1 lung carcinoma cells harboring oncogenic KRAS were infected with lentivirus containing shRNAs targeting KRAS or GFP. Sequences of shRNAs are indicated by starting nucleotide (nt) in the KRAS mRNA coding sequence. Cells were treated with erastin and viability measured by Trypan Blue exclusion. (b) Knockdown of KRAS was confirmed by western blot. (c,d) A673 cells harboring oncogenic BRAF were infected with lentiviral shRNAs targeting BRAF exon 5 (c) or the 5′ UTR (d), luciferase (LUC) (c) or GFP (d). Cells were treated with erastin and viability measured using Alamar Blue (c) and Trypan Blue (d). (e) Knockdown of BRAF was confirmed by western blot. […] BJ-TERT/LT/ST/RAS^V12 cells were treated with erastin alone or in with a MEK inhibitor U0126 (20 μM), MEK inhibitor I (10 μM) or MEK 1/2 inhibitor (50 μM). After 48 h, viability was determined using Trypan Blue. (g) Structures of certain erastin and related analogs. (h) and (i) Dose-response curves were measured for erastin A3 and erastin B2 in BJ-TERT/LT/ST/RAS^V12 cells (black squares) or BJ-TERT cells (grey circles). (j) Calu-1 lung carcinoma cells harboring oncogenic KRAS were infected with lentivirus containing shRNAs targeting KRAS or GFP. Sequences of shRNAs are indicated by starting nucleotide (nt) in the KRAS mRNA coding sequence. Cells were treated with erastin and viability (y-axis) measured by Trypan Blue exclusion. Cells were treated with erastin for 24 hours, and percent inhibition of viability (y-axis) measured using Alamar Blue (k) and Trypan Blue (l). (m) Structures of erastin and related analogs. (n) Dose-response curves were measured for erastin A6, erastin B2, erastin A8 and erastin A9 in BJ-TERT/LT/ST/RAS^V12 cells (squares) or BJ-TERT cells (circles) using Alamar Blue.
Alamar Blue metabolism: 10% Alamar Blue was added to assay plates, which were then incubated for an additional 16 hours. Red fluorescence, resulting from reduction of Alamar Blue, was detected on a Victor3 platereader (ex: 530, em: 590).
Table 2. Activity of RAS-selective lethal compound erastin in tumor cell lines. IC50 values (ng/mL) are shown using the Alamar Blue viability assay. BJ engineered tumor cells express TERT, LT, ST, and oncogenic RAS. Isogenic RAS^V12 lacking cells are identical but lack HRAS^V12. BJ-DRD cells are derived from BJ cells and contain TERT, oncogenic RAS, a truncated from of p53 (p53DD) that disrupts the tetramerization of endogenous p53, a CDK4(R24C) mutant resistant to inhibition by p16INK4A and p151NK4B (the major negative regulators of CDK4) and cyclin D1. These latter protein substitute for LT. HCT-116, A549, Calu-1, and MIA PaCa-2 are tumor cells derived from cancers (colon, lung, lung and pancreatic, respectively) known to have activating mutations in RAS.

VDAC2 = target: T1, VDAC2 (Homo sapiens, UniProt P45880); test: VDAC2 binding assay (competition with radiolabelled erastin A9); details: competition with tritium-labeled erastin A9
T1 construct: hexahistidine (pET-15b, thrombin site) (N); made in house; host or cells: E. coli
T1 sequence (P45880 1-294): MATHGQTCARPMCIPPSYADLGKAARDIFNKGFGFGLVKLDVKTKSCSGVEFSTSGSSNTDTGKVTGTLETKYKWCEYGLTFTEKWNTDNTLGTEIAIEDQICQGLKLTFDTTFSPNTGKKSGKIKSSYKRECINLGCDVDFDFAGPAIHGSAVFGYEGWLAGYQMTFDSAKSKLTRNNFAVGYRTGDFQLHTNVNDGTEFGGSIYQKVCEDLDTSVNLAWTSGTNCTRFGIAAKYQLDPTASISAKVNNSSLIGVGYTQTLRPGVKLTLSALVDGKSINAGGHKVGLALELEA
Description: Given the interactions between erastin and VDAC using affinity-based target identification and VDAC functional assays, the direct binding of erastin to VDACs was investigated.
VDAC2 protein was isolated from E. coli using a modified version of the protocol originally described by Koppel et al. Bacterial cultures were grown in LB containing 50 mg/L ampicillin to an OD of 0.6, and induced using […] IPTG overnight. Cultures were harvested by centrifugation at 6000×g for 10 min. The pellet was then washed with dH2O and resuspended in buffer (20% sucrose, 20 mM Tris, pH 8.0, […] lysozyme) and incubated at 25° C. for 10 minutes. The lysate was then sonicated for 2×30 seconds and centrifuged at 15000×g for 20 minutes. The pellet was resuspended in resuspension buffer (4.5 M guanidine-HCl, 0.1M NaCl, 20 mM Tris, pH 8.0) and incubated for 1 hour at 25° C. The suspension was then centrifuged (20 minutes, 15000×g), and the supernatant was loaded on a NI-NTA Superflow column (Qiagen) pre-equilibrated with 5 volumes of resuspension buffer. The column was washed with 5 column volumes of resuspension buffer containing 10 mM imidazole. The protein was then eluted using resuspension buffer containing 225 mM imidazole. The eluate was dialysed against 0.1 M NaCl, 20 mM Tris, pH 8.0, and 2% LDAO (Fluka) overnight, and then concentrated via centrifugation to 4 mg/mL.
To assay direct binding of erastin analogs, 40 μg of purified VDAC2 was resuspended in 100 μL of Binding Buffer (25 mM HEPES, pH 8.0, 0.1% BSA, 7 mM MgCl2, 15 mM NaCl), and incubated in the presence of 20 μM radiolabelled erastin A9 and erastin A9 or erastin A8 for 15 minutes. The mixture was then deposited onto Protran BA85 0.45 μM binding filters (Whatman) using vacuum filtration. The filter was rinsed 5 times with 1 mL wash buffer (25 mM HEPES, 0.1% BSA), and then incubated in 5 mL scintillation liquid (Cytoscint, MP Biomedicals). Radioactivity was detected on a LKB Wallac 1211 RACKBETA Liquid Scintillation Counter.

Oc1ncnc2[nH]ncc12 [allopurinol]
Effect on erastin-induced cell death [1]: did not affect erastin-induced cell death

Cc1cc(C(C)(C)C)c(O)c(C(C)(C)C)c1 [butylated hydroxytoluene]
Effect on erastin-induced cell death [1]: prevented erastin-induced death

Cn1cnc(N)c2ncnc1-2 [3-methyladenine]
Effect on erastin-induced cell death [1]: not suppressed

CC(C)(Oc1ccc(C2CC2(Cl)Cl)cc1)C(=O)O (centres unmarked) [ciprofibrate]
Effect on erastin-induced cell death [1]: did not affect erastin-induced cell death

CC(=O)O[C@H]1C(=O)[C@@]2(C)[C@H]([C@H](OC(=O)c3ccccc3)[C@]3(O)C[C@H](OC(=O)[C@H](O)[C@@H](NC(=O)c4ccccc4)c4ccccc4)C(C)=C1C3(C)C)[C@]1(OC(C)=O)CO[C@@H]1C[C@@H]2O [taxol]
IC50 (CCRF-CEM parental cells): 1 nM | IC50 [2]: 560 nM | IC50 [3]: 1380 nM

CC[C@]1(O)C[C@@H]2CN(CCc3c([nH]c4ccccc34)[C@@](C(=O)OC)(c3cc4c(cc3OC)N(C)[C@H]3[C@@](O)(C(=O)OC)[C@H](OC(C)=O)[C@]5(CC)C=CCN6CC[C@]43[C@@H]65)C2)C1 [vinblastine]
IC50 (CCRF-CEM parental cells): 1 nM | IC50 [2]: 93 nM | IC50 [3]: 370 nM

CC(C)NC(=O)N(CCN1CCN(C(=O)COc2ccc(Cl)cc2)CC1)Cc1ccc(F)cc1 [erastin B1]
IC50 [4]: 10000 nM | Selective lethality / activity of erastin analog [4]: inactive

COc1ccc2[nH]cc(CCNC(C)=O)c2c1 [melatonin]
Effect on erastin-induced cell death [1]: did not affect erastin-induced cell death

CCOc1ccccc1-n1c(C(C)N2CCN(C(=O)COc3ccc(CN)cc3)CC2)nc2ccccc2c1=O (centres unmarked) [erastin A3]
IC50 [4]: 25000 nM | Selective lethality / activity of erastin analog [4]: retained the ability to selectively kill BJ-TERT/LT/ST/RAS^V12 cells; also recorded: retained the ability to kill BJ-TERT/LT/ST/RAS^V12 cells but not BJ-TERT cells

CC1=C(/C=C/C(C)=C/C=C/C(C)=C/C=C/C=C(C)/C=C/C=C(C)/C=C/C2=C(C)CCCC2(C)C)C(C)(C)CCC1 [beta-carotene]
Effect on erastin-induced cell death [1]: prevented erastin-induced death

CCOc1ccccc1-n1c(C(C)N2CCN(C(=O)COc3ccc(CN)cc3)CC2)nc2ccccc2c1=O (centres unmarked) [erastin A6, 2-(1-{4-[2-(4-Aminomethyl-phenoxy)-acetyl]-piperazin-1-yl}-ethyl)-3-(2-ethoxy-phenyl)-3H-quinazolin-4-one]
Selective lethality / activity of erastin analog ([4]; listed as ERA-A6): selectively lethal to RAS^V12-expressing cells

Cc1c(C)c2c(c(C)c1O)CC[C@@](C)(CCC[C@H](C)CCC[C@H](C)CCCC(C)C)O2 [alpha-tocopherol]
Effect on erastin-induced cell death [1]: prevented erastin-induced death

O=c1[nH]c(=O)c2c[nH]nc2[nH]1 [oxypurinol]
Effect on erastin-induced cell death [1]: did not affect erastin-induced cell death

COC(=O)CC(NC(=O)OC(C)(C)C)C(=O)CF (centres unmarked) [Boc-Asp(Ome)-fluoromethyl ketone]
Effect on erastin-induced cell death [1]: does not block cell death induced by erastin

CC(C)NC(=O)N(CCN1CCN(C(=O)COc2ccc(Cl)cc2)CC1)Cc1ccc(CN)cc1 [erastin B2, 1-(4-Aminomethyl-benzyl)-1-(2-{4-[2-(4-chloro-phenoxy)-acetyl]-piperazin-1-yl}-ethyl)-3-isopropyl-urea]
Selective lethality / activity of erastin analog [4]: lacking activity in cells; also recorded: lacks activity | IC50 ([4]; Homo sapiens): > 50000 nM

C[C@@H]1C[C@@H]([C@H](O)CC2CC(=O)NC(=O)C2)C(=O)[C@@H](C)C1 [cyclohexamide]
Effect on erastin-induced cell death [1]: suppressed

CCOc1ccccc1-n1c(C(C)N2CCN(C(=O)COc3ccc(Cl)cc3)CC2)nc2cc(NC(C)=O)ccc2c1=O (centres unmarked) [erastin A9, N-[2-(1-{4-[2-(4-chloro-phenoxy)-acetyl]-piperazin-1-yl}-ethyl)-3-(2-ethoxy-phenyl)-4-oxo-3,4-dihydro-quinazolin-7-yl]-acetamide]
Direct binding to VDAC2 (VDAC2): directly binds VDAC2 | Kd (VDAC2): 112 nM | IC50 ([4]; Homo sapiens): 1900 nM
